Among the test systems are UACC-257 melanoma; HCT-116 colon; M14 melanoma; A549 NSCLC; HCC-2998 colon; RPMI-8226 leukemia; BT-549 breast; HL-60(TB) leukemia; EKVX NSCLC; NCI-H522 lung.
Assay in all cases: NCI anticancer screen, dose series, 48 h

Several values for one entry are separate records, joined by “and”; a condition that tells them apart may be missing. Identical values can stand only once.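 These data come from cells grown in 96-well plates and exposed to compound for 48 hours at five concentrations. Abbreviation: GI50, concentration required for 50% inhibition of growth. At the TGI there is no net growth.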 Some results are limits rather than exact numbers.

Take `N#CCCN(CCCN(CCCN(C(=O)Nc1ccccc1)c1ccccc1)C(=O)Nc1ccccc1)C(=O)Nc1ccccc1`: the GI50 in the experiment on UACC-257 melanoma was greater than 100 µM; in the experiment with HCT-116 colon it was greater than 100 µM; with M14 melanoma it was greater than 100 µM; in the experiment on A549 NSCLC, greater than 100 µM; in the experiment with RPMI-8226 leukemia it was 3.89 µM; in the experiment on BT-549 breast, greater than 100 µM. The figures for the GI50 in the experiment with HL-60(TB) leukemia and in the experiment with EKVX NSCLC were 5.2 µM and 16.3 µM, respectively. Further, the TGI in the experiment with UACC-257 melanoma, in the experiment with HCT-116 colon, in the experiment with M14 melanoma, with A549 NSCLC, in the experiment on HCC-2998 colon and in the experiment with RPMI-8226 leukemia was greater than 100 µM throughout. The TGI with BT-549 breast is greater than 100 µM; in the experiment on HL-60(TB) leukemia, > 8.75 µM and 15.6 µM; with EKVX NSCLC, > 8.75 µM and 70.5 µM.

Turning to `O=C(Nc1cccc(-n2cc(-c3ccncc3)c(-c3cc(O)cc(Cl)c3)n2)c1)Nc1ccc(Cl)c(C(F)(F)F)c1`, the GI50 was 1.99 µM in the experiment on UACC-257 melanoma; 1.96 µM with HCT-116 colon; 1.72 µM with M14 melanoma; 2.33 µM in the experiment with A549 NSCLC; 3.93 µM with HCC-2998 colon; 1.95 µM in the experiment on RPMI-8226 leukemia. In addition, the values for the GI50 in the experiment on BT-549 breast, with HL-60(TB) leukemia and in the experiment on NCI-H522 lung were 2.25 µM, 2.86 µM and 1.32 µM, respectively. The TGI was 5.34 µM in the experiment with UACC-257 melanoma; 4.47 µM in the experiment with HCT-116 colon; 3.85 µM in the experiment with M14 melanoma; 9.2 µM in the experiment on A549 NSCLC; 13.4 µM in the experiment with HCC-2998 colon; 5.09 µM with RPMI-8226 leukemia. For the same compound, the TGI in the experiment on BT-549 breast was 6.15 µM; in the experiment on HL-60(TB) leukemia, 6.62 µM; in the experiment with NCI-H522 lung, 4.48 µM.

Consider `O=C(N/C(=C/c1ccc(Cl)cc1Cl)c1nc2ccccc2s1)c1ccccc1`, for which the TGI is 31.6 µM in the experiment on UACC-257 melanoma; greater than 100 µM in the experiment with HCT-116 colon; 37.6 µM in the experiment with M14 melanoma; 53.8 µM in the experiment with A549 NSCLC; greater than 100 µM with RPMI-8226 leukemia; 64.8 µM in the experiment with BT-549 breast. Further, the TGI in the experiment on HL-60(TB) leukemia was greater than 100 µM; in the experiment with EKVX NSCLC it was 41 µM; with NCI-H522 lung, 24.7 µM.

`O=c1oc(Cl)c(Cl)c2ccccc12`: the GI50 was 93.8 µM in the experiment with UACC-257 melanoma; 31.9 µM in the experiment with HCT-116 colon; 41.3 µM in the experiment on M14 melanoma; 54.2 µM in the experiment with A549 NSCLC; 44.3 µM in the experiment on HCC-2998 colon; 20.8 µM with BT-549 breast. Moreover, the GI50 in the experiment on EKVX NSCLC is 18.8 µM; with NCI-H522 lung it was greater than 100 µM. The TGI is greater than 100 µM with UACC-257 melanoma; 71.8 µM in the experiment with HCT-116 colon; greater than 100 µM in the experiment with M14 melanoma; greater than 100 µM with A549 NSCLC; 73.9 µM in the experiment on HCC-2998 colon; 41.2 µM in the experiment on BT-549 breast. For the same compound, the TGI in the experiment on EKVX NSCLC was 44.3 µM; in the experiment with NCI-H522 lung, greater than 100 µM.

For `c1ccc(CN2CCC3(CC2)SSC2(CCN(Cc4ccccc4)CC2)S3)cc1`, the TGI with UACC-257 melanoma was greater than 100 µM; in the experiment on HCT-116 colon, greater than 100 µM; in the experiment on M14 melanoma, greater than 100 µM; in the experiment on A549 NSCLC, greater than 100 µM; in the experiment on HCC-2998 colon, 93.6 µM; in the experiment on RPMI-8226 leukemia, 98.4 µM. The TGI with BT-549 breast and with HL-60(TB) leukemia was greater than 100 µM each time.

With `COc1ccc(-c2nc(-c3ccccc3)c(-c3ccccc3)[nH]2)cc1OC1CCCC1`, the GI50 in the experiment on UACC-257 melanoma is greater than 100 µM; with HCT-116 colon, greater than 100 µM; in the experiment on M14 melanoma, greater than 100 µM; in the experiment on A549 NSCLC it was greater than 100 µM; with HCC-2998 colon, greater than 100 µM; in the experiment on RPMI-8226 leukemia, 38.1 µM. Moreover, the GI50 in the experiment on BT-549 breast was greater than 100 µM; with HL-60(TB) leukemia it was greater than 100 µM; in the experiment with NCI-H522 lung, 6.11 µM. In addition, the TGI in the experiment with UACC-257 melanoma, with HCT-116 colon, with M14 melanoma, in the experiment on A549 NSCLC, in the experiment with HCC-2998 colon and in the experiment on RPMI-8226 leukemia was greater than 100 µM in each case. For the same compound, the TGI with BT-549 breast, with HL-60(TB) leukemia and with NCI-H522 lung was greater than 100 µM each time.

For the compound `OCC(O)C(Cl)CCl` (stereo not drawn), the TGI with UACC-257 melanoma, in the experiment with HCT-116 colon, in the experiment with M14 melanoma, with A549 NSCLC, in the experiment on HCC-2998 colon and with BT-549 breast was greater than 100 µM each time. Moreover, the TGI with HL-60(TB) leukemia, in the experiment with EKVX NSCLC and in the experiment with NCI-H522 lung was greater than 100 µM throughout.

For the compound `Cc1cc(C(=C2C=CC(=Nc3ccccc3)C=C2)c2ccc(Nc3ccccc3)cc2)ccc1N`, the GI50 in the experiment with UACC-257 melanoma was 0.286 µM; with HCT-116 colon, 0.287 µM; with M14 melanoma, 0.286 µM; in the experiment with A549 NSCLC, 0.599 µM; with HCC-2998 colon, 0.211 µM; with BT-549 breast, 1.06 µM. Moreover, the GI50 with EKVX NSCLC is 0.334 µM; in the experiment with NCI-H522 lung, 0.203 µM. For the same compound, the TGI in the experiment with UACC-257 melanoma worked out at 1.04 µM; in the experiment with HCT-116 colon, 1.02 µM; in the experiment on M14 melanoma, 1.04 µM; with A549 NSCLC it was 1.69 µM; with HCC-2998 colon it was 0.452 µM; with BT-549 breast, 2.26 µM. Moreover, the TGI in the experiment with EKVX NSCLC was 1.26 µM; in the experiment on NCI-H522 lung, 0.602 µM.

As to `CN[C@H](C#Cc1c(F)ccc2c1/C(=C/c1[nH]ccc1OC)C(=O)N2)CO`, the GI50 in the experiment with UACC-257 melanoma was 1.52 µM; with HCT-116 colon it was 0.136 µM; in the experiment on M14 melanoma, 0.403 µM; in the experiment with A549 NSCLC it was 0.354 µM; with HCC-2998 colon, 0.746 µM; in the experiment with RPMI-8226 leukemia, 0.689 µM. The GI50 in the experiment with BT-549 breast was 1.15 µM; with HL-60(TB) leukemia, 0.513 µM; in the experiment with NCI-H522 lung it was 0.659 µM. The TGI was 4.93 µM with UACC-257 melanoma; 5.21 µM in the experiment with HCT-116 colon; 3.14 µM in the experiment with M14 melanoma; 2.82 µM in the experiment with A549 NSCLC; 3.27 µM with HCC-2998 colon; 1.8 µM in the experiment with RPMI-8226 leukemia. The TGI in the experiment on BT-549 breast was 4.15 µM; with HL-60(TB) leukemia, 2.01 µM; with NCI-H522 lung, 2.45 µM.

`NC(=O)c1ccccc1Nc1ccc2nnc(-c3ccncc3)n2n1`: the GI50 was 3.77 µM in the experiment with HCT-116 colon; 11.1 µM in the experiment with M14 melanoma; 16.6 µM in the experiment with HCC-2998 colon; 3.43 µM in the experiment on RPMI-8226 leukemia; 1.9 µM in the experiment on BT-549 breast; 14.3 µM with HL-60(TB) leukemia. In addition, the GI50 in the experiment on NCI-H522 lung is 4.46 µM. The TGI with HCT-116 colon was 14.3 µM; in the experiment on M14 melanoma, 26.5 µM; in the experiment on HCC-2998 colon, 34.5 µM; with RPMI-8226 leukemia it was 17.4 µM; with BT-549 breast, 3.83 µM; in the experiment with HL-60(TB) leukemia, 39.6 µM. Moreover, the TGI in the experiment with NCI-H522 lung came to 18 µM.
